{
  "source": "patent US20130164259A1",
  "about": "“1,4-S[…] DERIVATIVES AND METHODS OF USE THEREOF” (priority 2009, published 2013)",
  "target": "T1, HCV NS5B polymerase (NS5BΔCT21) (Hepatitis C virus genotype 1b, UniProt Q9WMX2)",
  "T1 construct": "A soluble C-terminal 21-amino acid truncated NS5B enzyme form; polyhistidine (C); made in house; host or cells: Escherichia coli",
  "assay": "HCV NS5B Polymerase Inhibition Assay",
  "assay_type": "biochemical, HCV-Con 1 isolate",
  "description": "A chemically synthesized 75-mer version, designated DCoH75, whose sequence matches the 3′-end of D-RNA, and DCoH75ddC, where the 3′-terminal cytidine of DCoH75 is replaced by dideoxycytidine, were used for assaying the NS5B enzyme activity as described in Ferrari et al., 12th International Symposium on HCV and Related Viruses, P-306 (2005). The sequence of the template RNA was: 5′-UGUGCCGGUCUUUCUGAACGGGAUAUAAACCUGGCCAGCUUCAUCGAACAAGUUGCCGUGUCUAUGACAUAGAUC-3′ (SEQ ID NO: 1). A soluble C-terminal 21-amino acid truncated NS5B enzyme form (NS5BΔCT21, from HCV-Con 1 isolate, genotype 1b, Genbank accession number AJ238799) was produced and purified from Escherichia coli as C-terminal polyhistidine-tagged fusion protein as described in Ferrari et al., J. Virol. 73:1649-1654 (1999). A typical assay contained 20 mM Hepes pH 7.3, 10 mM MgCl2, 60 mM NaCl, 100 μg/ml BSA, 20 units/ml RNasin, 7.5 mM DTT, 0.1 μM ATP/GTP/UTP, 0.026 μM CTP, 0.25 mM GAU, 0.03 μM RNA template, 20 μCi/ml [^33P]-CTP, 2% DMSO, and 30 or 150 nM NS5B enzyme. Reactions were incubated at 22° C. for 2 hours, then stopped by adding 150 mM EDTA, washed in DE81 filter plate in 0.5M di-basic sodium phosphate buffer, pH 7.0, and counted using Packard TopCount after the addition of scintillation cocktail. Polynucleotide synthesis was monitored by the incorporation of radiolabeled CTP. The effect of the Compounds of Formula (I) on the polymerase activity was evaluated by adding various concentrations of a Compound of Formula (I), typically in 10 serial 2-fold dilutions, to the assay mixture. The starting concentrations ranged from 200 μM to 1 μM. An IC50 value for the inhibitor, defined as the compound concentration that provides 50% inhibition of polymerase activity, was determined by fitting the cpm data to the Hill equation Y=100/(1+10̂((LogIC50−X)*HillSlope)), where X is the logarithm of compound concentration, and Y is the % inhibition. Ferrari et al., 12th International Symposium on HCV and Related Viruses, P-306 (2005) described in detail this assay procedure. It should be noted that such an assay as described is exemplary and not intended to limit the scope of the invention. The skilled practitioner can appreciate that modifications including but not limited to RNA template, primer, nucleotides, NS5B polymerase form, buffer composition, can be made to develop similar assays that yield the same result for the efficacy of the compounds and compositions described in the invention.\nNS5B polymerase inhibition data was calculated for the compounds of the present invention using this method and is set forth in the table below.",
  "data": [
    {"smiles": "CC(C)(C)c1ccc(NC(=O)c2cccnc2)c(N2CCN(c3cnccn3)CC2)c1", "note": "[Compound 63]", "values": [
      {"measurement": "IC50", "result": 3, "unit": "µM"}
    ]},
    {"smiles": "C=C(C)c1ccc(NC(=O)c2cccnc2)c(N2CCN(c3cnccn3)CC2)c1", "note": "[Compound 64]", "values": [
      {"measurement": "IC50", "result": 7, "unit": "µM"}
    ]},
    {"smiles": "O=C(Nc1ccc(Br)cc1N1CCN(c2cnccn2)CC1)c1cccnc1", "note": "[Compound 65]", "values": [
      {"measurement": "IC50", "result": "> 20", "unit": "µM"}
    ]},
    {"smiles": "O=C(Nc1ccc(C2CC2)cc1N1CCN(c2cnccn2)CC1)c1cccnc1", "note": "[Compound 66]", "values": [
      {"measurement": "IC50", "result": 12, "unit": "µM"}
    ]},
    {"smiles": "O=C(Nc1ccc(-c2ccccc2)cc1N1CCN(c2cnccn2)CC1)c1cccnc1", "note": "[Compound 67]", "values": [
      {"measurement": "IC50", "result": 8, "unit": "µM"}
    ]},
    {"smiles": "O=C(Nc1ccc(C(F)(F)F)cc1N1CCN(c2cnccn2)CC1)c1cccnc1", "note": "[Compound 68]", "values": [
      {"measurement": "IC50", "result": "> 20", "unit": "µM"}
    ]},
    {"smiles": "CCOC(=O)c1ccc(NC(=O)c2cccnc2)c(N2CCN(c3cnccn3)CC2)c1", "note": "[Compound 69]", "values": [
      {"measurement": "IC50", "result": "> 5", "unit": "µM"}
    ]},
    {"smiles": "O=C(Nc1ccc(I)cc1N1CCN(c2cnccn2)CC1)c1cccnc1", "note": "[Compound 70]", "values": [
      {"measurement": "IC50", "result": 13, "unit": "µM"}
    ]}
  ]
}
